How the values were obtained:
[1] = biological target: T1, rat μ (C6-MOR) opioid receptor (Rattus norvegicus, UniProt P33535); assay: Radioligand binding assay, [3H]diprenorphine displacement, MOR; conditions: displacement of 0.2 nM [3H]diprenorphine, C6-MOR membranes; mean ± standard error
T1 construct: expressed in transfected cells
Description: (§1) In Vitro Pharmacology-Cell Lines and Membrane Preparations. All tissue culture reagents were purchased from Gibco Life Sciences (Grand Island, N.Y., U.S.). C6-rat glioma cells stably transfected with a rat μ (C6-MOR) or rat δ (C6-DOR) opioid receptor20 and Chinese hamster ovary (CHO) cells stably expressing a human K (CHO-KOR) opioid receptor21 were used for all in vitro assays. Cells were grown to confluence at 37° C. in 5% CO2 in Dulbecco's modified Eagle medium containing 10% fetal bovine serum and 5% penicillin/streptomycin. Membranes were prepared by washing confluent cells three times with ice cold phosphate buffered saline (0.9% NaCl, 0.61 mM Na2HPO4, 0.38 mM KH2PO4, pH 7.4). Cells were detached from the plates by incubation in warm harvesting buffer (20 mM HEPES, 150 mM NaCl, 0.68 mM EDTA, pH 7.4) and pelleted by centrifugation at 200 g for 3 min. The cell pellet was suspended in ice-cold 50 mM Tris-HCl buffer, pH 7.4, and homogenized with a Tissue Tearor (Biospec Products, Inc., Bartlesville, Okla., U.S.) for 20 s at setting 4. The homogenate was centrifuged at 20 000 g for 20 min at 4° C., and the pellet was rehomogenized in 50 mM Tris-HCl with a Tissue Tearor for 10 s at setting 2, followed by recentrifugation. The final pellet was resuspended in 50 mM Tris-HCl and frozen in aliquots at […]. Protein concentration was determined via Bradford assay using bovine serum albumin as the standard.
(§2) Radioligand Binding Assays. Radioactive compounds were purchased from Perkin-Elmer (Waltham, Mass., U.S.). Opioid ligand binding assays were performed using competitive displacement of 0.2 nM [3H]diprenorphine (250 μCi, 1.85 TBq/mmol) by the test compound from membrane preparations containing opioid receptors. The assay mixture, containing membrane suspension (20 μg protein/tube) in 50 mM Tris-HCl buffer (pH 7.4), [3H]diprenorphine, and various concentrations of test peptide, was incubated at room temperature for 1 h to allow binding to reach equilibrium. The samples were rapidly filtered through Whatman GF/C filters using a Brandel harvester (Brandel, Gaithersburg, Md., U.S.) and washed three times with 50 mM Tris-HCl buffer. The radioactivity retained on dried filters was determined by liquid scintillation counting after saturation with EcoLume liquid scintillation cocktail in a Wallac 1450 MicroBeta (Perkin-Elmer, Waltham, Mass., U.S.). Nonspecific binding was determined using 10 μM naloxone. Inhibitory constant (Ki) values were calculated using nonlinear regression analysis to fit a logistic equation to the competition data using GraphPad Prism, version 5.01, for Windows (GraphPad Software Inc., La Jolla, Calif.). The results presented are the mean±standard error from at least three separate assays performed in duplicate.

[2] = biological target: T2, rat δ (C6-DOR) opioid receptor (Rattus norvegicus, UniProt P33533); assay: Radioligand binding assay, [3H]diprenorphine displacement, DOR; conditions: displacement of 0.2 nM [3H]diprenorphine, C6-DOR membranes; mean ± standard error
T2 construct: expressed in transfected cells
T2 sequence (P33533 whole entry): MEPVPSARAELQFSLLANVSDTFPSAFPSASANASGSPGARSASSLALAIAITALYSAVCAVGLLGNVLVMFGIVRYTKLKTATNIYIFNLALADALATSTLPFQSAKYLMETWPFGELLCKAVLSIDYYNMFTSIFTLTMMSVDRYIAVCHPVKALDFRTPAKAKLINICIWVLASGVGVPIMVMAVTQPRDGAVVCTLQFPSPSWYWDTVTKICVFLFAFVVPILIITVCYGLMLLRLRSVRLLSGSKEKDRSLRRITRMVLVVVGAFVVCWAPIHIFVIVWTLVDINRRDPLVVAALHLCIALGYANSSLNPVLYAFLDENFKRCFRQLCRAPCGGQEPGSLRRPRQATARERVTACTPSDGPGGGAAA
Description: as §1, §2

[3] = biological target: T1, rat μ (C6-MOR) opioid receptor; assay: Stimulation of [35S]GTPγS binding, MOR; type: biochemical; conditions: for EC50 / EC50 (nm) MOR: [35S]GTPγS binding, C6-MOR membranes, mean ± standard error; for Emax / % stimulation MOR: [35S]GTPγS maximal stimulation compared with 10 μM standard DAMGO
Description: as §1
(§3) Stimulation of [^35S]GTPyS Binding. Agonist stimulation of [35S]guanosine 5′-O-[γ-thio]triphosphate ([^35S]GTPγS, 1250 Ci, 46.2 TBq/mmol) binding was measured as described previously Briefly, membranes (10-20 μg of protein/tube) were incubated 1 h at room temperature in GTPyS buffer (50 mM Tris-HCl, 100 mM NaCl, 5 mM MgCl2, pH 7.4) containing 0.1 nM [^35S]GTPγS, 30 μM guanosine diphosphate (GDP), and varying concentrations of test peptides. Peptide stimulation of [^35S]GTPyS was compared with 10 μM standard compounds [D-Ala^2,N-MePhe^4,Gly-ol]encephalin (DAMGO) at MOR, D-Pen^2,5-enkephalin (DPDPE) at DOR, or […] at KOR. The reaction was terminated by rapidly filtering through GF/C filters and washing 10 times with GTPyS buffer, and retained radioactivity was measured as described above. The results presented are the mean±standard error from at least three separate assays performed in duplicate; maximal stimulation was determined using nonlinear regression analysis with GraphPad Prism (GraphPad Software Inc., La Jolla, Calif.).

[4] = biological target: T2, rat δ (C6-DOR) opioid receptor; assay: Stimulation of [35S]GTPγS binding, DOR; type: biochemical; conditions: for EC50 / EC50 (nm) DOR: [35S]GTPγS binding, C6-DOR membranes, mean ± standard error; for Emax / % stimulation DOR: [35S]GTPγS maximal stimulation compared with 10 μM standard DPDPE
Description: as §1, §3

[5] = biological target: T3, human κ (CHO-KOR) opioid receptor (Homo sapiens, UniProt P41145); assay: Radioligand binding assay, [3H]diprenorphine displacement, KOR; conditions: displacement of 0.2 nM [3H]diprenorphine, CHO-KOR membranes; mean ± standard error
T3 construct: expressed in transfected cells
T3 sequence (P41145 whole entry): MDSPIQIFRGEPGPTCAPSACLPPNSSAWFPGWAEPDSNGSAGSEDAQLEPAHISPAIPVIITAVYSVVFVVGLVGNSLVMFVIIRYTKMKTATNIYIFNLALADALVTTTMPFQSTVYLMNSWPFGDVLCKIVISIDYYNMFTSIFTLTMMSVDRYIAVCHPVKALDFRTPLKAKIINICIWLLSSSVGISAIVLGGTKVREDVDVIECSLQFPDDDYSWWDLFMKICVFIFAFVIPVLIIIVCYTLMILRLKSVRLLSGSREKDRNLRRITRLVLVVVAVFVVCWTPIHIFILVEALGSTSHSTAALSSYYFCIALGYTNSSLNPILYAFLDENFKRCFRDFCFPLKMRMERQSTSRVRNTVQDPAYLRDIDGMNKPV
Description: as §1, §2

[6] = biological target: T3, human κ (CHO-KOR) opioid receptor; assay: Stimulation of [35S]GTPγS binding, KOR; type: biochemical
Description: as §1, §3

T1 sequence (P33535 whole entry): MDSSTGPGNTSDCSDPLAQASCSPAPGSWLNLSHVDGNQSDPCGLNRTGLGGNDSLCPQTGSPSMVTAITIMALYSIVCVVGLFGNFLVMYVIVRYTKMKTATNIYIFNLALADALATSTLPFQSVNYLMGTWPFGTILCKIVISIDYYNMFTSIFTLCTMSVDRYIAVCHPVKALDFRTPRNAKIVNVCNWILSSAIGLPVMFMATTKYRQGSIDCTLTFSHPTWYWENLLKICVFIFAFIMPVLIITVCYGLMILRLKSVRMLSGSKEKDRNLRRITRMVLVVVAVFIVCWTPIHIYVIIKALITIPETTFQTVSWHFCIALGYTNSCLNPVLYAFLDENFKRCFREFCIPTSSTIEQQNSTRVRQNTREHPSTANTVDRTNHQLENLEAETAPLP

SMILES | Ki [1] [nM] | Ki [2] [nM] | EC50 [3] [nM] | Emax [3] [%] | EC50 [4] [nM] | Emax [4] [%] | Ki [5] [nM] | EC50 (nm) DOR [4] | % stimulation DOR [4] | EC50 (nm) MOR [3] | % stimulation MOR [3] | EC50 ([6]; [35S]GTPγS binding, CHO-KOR membranes, mean ± standard error) [nM] | Emax ([6]; [35S]GTPγS maximal stimulation compared with 10 μM standard U-69,593) [%]
Cc1cc(O)cc(C)c1C[C@H](N)C(=O)N[C@H]1CCNc2ccc(Oc3ccccc3)cc21 [Compound 1018] | 41.3 ± 6.34 | 277 ± 47.4 | 1300 | 16.6 ± 16.6 | 2000 | 19.6 | 494 | – | – | – | – | – | –
CC(=O)N1CC[C@H](NC(=O)[C@@H](N)Cc2c(C)cc(O)cc2C)c2cc(Oc3ccccc3)ccc21 [Compound 1020] | 6.25 ± 1.39 | 92.9 ± 15.1 | 598 ± 282 | 60.4 ± 2.04 | 204 | 16 | 787 | – | – | – | – | – | –
COc1cc(Cl)c(C[C@H](N)C(=O)N[C@@H]2CCNc3ccc(Cc4ccccc4)cc32)c(Cl)c1 [Compound 1021] | 38.1 ± 5.83 | 2700 | 1390 ± 480 | 34.8 ± 2.52 | – | – | 1210 | – | – | – | – | – | –
Cc1cc(O)cc(C)c1C[C@H](N)C(=O)N[C@@H]1CCNc2ccc(C(c3ccccc3)c3ccccc3)cc21 [Compound 1022] | 0.2 ± 0.02 | 2.29 ± 0.36 | 12.5 ± 8.76 | 24.5 ± 0.29 | – | 0 | 6.91 ± 0.21 | – | – | – | – | – | –
Cc1cc(O)cc(C)c1C[C@H](N)C(=O)N[C@@H]1CCNc2cc(Cc3ccccc3)ccc21 [Compound 1023] | 0.78 ± 0.27 | 25.8 ± 1.61 | 25.4 ± 22.2 | 18.1 ± 4.92 | – | – | 91.6 | dns | dns | – | – | – | –
Cc1cc(O)cc(C)c1C[C@H](N)C(=O)N[C@H]1CCNc2cc(Cc3ccccc3)ccc21 [Compound 1024] | 21.1 ± 11.9 | 295 ± 108 | – | – | – | – | 1030 | dns | dns | dns | dns | – | –
Cc1cc(O)cc(C)c1C[C@H](N)C(=O)N[C@@H]1CCNc2ccc(Oc3ccc(Cl)cc3)cc21 [Compound 1025] | 0.1 ± 0.03 | 12.1 ± 3.52 | 9.7 ± 1.32 | 52.9 ± 4.46 | 0.3 | 1.18 ± 1.18 | 24.8 | – | – | – | – | – | –
N[C@@H](Cc1ccc(Cl)cc1Cl)C(=O)N[C@@H]1CCNc2ccc(Cc3ccccc3)cc21 [Compound 1028] | 50.6 ± 10.6 | 2090 | – | 13.8 ± 1.27 | – | 0 | – | – | – | – | – | – | –
COc1ccccc1Oc1ccc2c(c1)[C@H](NC(=O)[C@@H](N)Cc1c(C)cc(O)cc1C)CCN2 [Compound 1029] | 0.36 ± 0.04 | 9.97 ± 0.71 | 46.7 ± 4.12 | 35.7 ± 2.58 | – | 0 | – | – | – | – | – | – | –
Cc1cc(O)cc(C)c1C[C@H](N)C(=O)N[C@@H]1CCNc2ccc(Oc3cccc(Cl)c3)cc21 [Compound 1030] | 0.08 ± 0.01 | 2.59 | 10.1 ± 3.25 | 27.2 ± 2.11 | – | – | – | – | – | – | – | – | –
COc1ccccc1Oc1ccc2c(c1)[C@H](NC(=O)[C@@H](N)Cc1c(C)cc(O)cc1C)CCN2C(C)=O [Compound 1031] | 0.27 ± 0.05 | 2.7 | 39.7 ± 17 | 30.5 ± 1.74 | – | – | – | – | – | – | – | – | –
CCC(=O)N1CC[C@@H](NC(=O)[C@@H](N)Cc2c(C)cc(O)cc2C)c2cc(CC3Cc4ccccc4C3)ccc21 [Compound 1033] | 0.06 ± 0.01 | 0.3 ± 0.11 | 3.61 ± 2.02 | 52 ± 7.7 | – | – | – | dns | dns | – | – | – | –
COc1cccc2c1CC(Cc1ccc3c(c1)[C@H](NC(=O)[C@@H](N)Cc1c(C)cc(O)cc1C)CCN3)C2 (stereo partly drawn) [Compound 1035, (2S)-2-amino-3-(4-hydroxy-2,6-dimethylphenyl)-N-((4R)-6-((4-methoxy-2,3-dihydro-1H-inden-2-yl)methyl)-1,2,3,4-tetrahydroquinolin-4-yl)propanamide] | 0.09 | 4.13 ± 2.27 | 1.44 | 32.9 | – | – | – | dns | dns | – | – | – | –
COc1ccc2c(c1)CC(Cc1ccc3c(c1)[C@H](NC(=O)[C@@H](N)Cc1c(C)cc(O)cc1C)CCN3)C2 (some centres unmarked) [Compound 1037] | 0.26 ± 0.15 | 6.15 ± 2.09 | 354 | 10.9 | – | – | – | dns | dns | – | – | – | –
CC(=O)N1CC[C@@H](NC(=O)[C@@H](N)Cc2c(C)cc(O)cc2C)c2cccc(Cc3ccccc3)c21 [Compound 1040] | 92.4 | 6.19 | 19 | 8.03 | – | – | – | – | – | – | – | – | –
Cc1cc(O)cc(C)c1C[C@H](N)C(=O)N[C@@H]1CCNc2ccc(CN3CCNCC3)cc21 [Compound 1059] | 16.6 ± 8.63 | 1560 ± 288 | 90.5 ± 73.2 | – | – | – | 11.7 ± 1.56 | – | – | – | dns | – | –
Cc1cc(O)cc(C)c1C[C@H](N)C(=O)N[C@@H]1CCNc2ccc(CN3CCC4(CCCCC4)C3)cc21 [Compound 1105] | 1.14 | 14.1 | – | – | – | – | 1.66 | – | – | – | – | – | –
Cc1cc(O)cc(C)c1C[C@H](N)C(=O)N[C@@H]1CCNc2ccc(CN3CCCC4(CCCCC4)CC3)cc21 [Compound 1106] | 0.54 | 17 | – | – | – | – | 3.08 | – | – | – | – | – | –
CCCc1cc(Cc2ccccc2)cc2c1N(C(C)=O)CC[C@H]2NC(=O)[C@@H](N)Cc1c(C)cc(O)cc1C [Compound 1107] | 0.35 | 1.95 | – | – | – | – | 32.7 | – | – | – | – | – | –
CC(=O)N1CC[C@@H](NC(=O)[C@@H](N)Cc2c(C)cc(O)cc2C)c2cc(Cc3ccccc3)cc(Br)c21 [Compound 1108] | 0.49 | 1.35 | – | – | – | – | 33.3 | – | – | – | – | – | –
N[C@@H](Cc1c(Cl)cc(O)cc1Cl)C(=O)N[C@@H]1CCCc2ccc(Oc3ccccc3)cc21 [Compound 1119] | 1.53 ± 0.64 | 105 ± 10.5 | 118 ± 76 | 20.7 ± 2.91 | – | – | – | dns | dns | – | – | – | –
Cc1cc(O)cc(C)c1C[C@H](N)C(=O)N[C@@H]1CC[C@H](C)c2ccc(Cc3ccccc3)cc21 [Compound 1120] | 0.08 ± 0.02 | 5.85 ± 0.58 | 16 ± 1.94 | 72.3 ± 3.67 | – | – | – | dns | dns | – | – | – | –
Cc1cc(O)cc(C)c1C[C@H](N)C(=O)N[C@@H]1CC[C@@H](C)c2ccc(Cc3ccccc3)cc21 [Compound 1121] | 0.32 ± 0.1 | 15.8 ± 4.72 | – | – | 109 ± 80.7 | 14.3 ± 4.34 | – | – | – | dns | dns | – | –
Cc1cc(O)cc(C)c1C[C@H](N)C(=O)N[C@@H]1CCC(C)(C)c2ccc(Cc3ccccc3)cc21 [Compound 1122] | 0.36 ± 0.08 | 6.5 ± 0.66 | 16 ± 4.74 | 75.4 ± 4.06 | 1090 ± 654 | 16 ± 2.78 | – | – | – | – | – | 2100 | 77.8

Source: patent US10519114B2, “Peptidomimetics and methods of using the same” (The Regents of the University of Michigan, priority 2016, dated 2019)
